The values below come from patent US12185720B2, “Chitooligosaccharides and methods for use in enhancing plant growth” (NOVOZYMES BIOAG A/S, priority 2011, dated 2025).

This assay relates to Tomato seeds of hybrid tomato var. Royal Mounty. In words: In vitro tomato seedling root growth bioassay (agar medium). Type of assay: in vivo. As to conditions: day 7; control water. As to the method:
Tomato seeds of hybrid tomato var. Royal Mounty were surface sterilized with 10% bleach solution for 10 minutes followed by 3 rinses with sterilized distilled water. Seeds were then dried in a laminar air flow hood for 3 hours. Seeds were then placed in petri-dishes on solidified agar medium containing various concentrations of different sources of the LCO illustrated in FIG. 1b (manufactured by Darmstadt, Germany and Grenoble, France) (also referred to in the examples as the “soybean LCO”) and the inventive CO illustrated in FIG. 2a (also referred to in the examples as the “pea CO” or “CO-V”). Seedling roots were measured by a hand ruler and root fresh weights were taken in a micro balance at day 7. Growth study was done in a growth chamber at 22° C.

For the substance “LCO-V(C18:1, MeFuc) [Soybean LCO, reference compound]”, the “root fresh weight, compared to control seedlings” value was “significantly better than control seedlings” and the “root length, compared to control seedlings” value was “significantly better than control seedlings”.
